Data from patent publication US20230157996A1, “SMALL-MOLECULE INHIBITOR TARGETING EB VIRUS NUCLEAR ANTIGEN PROTEIN, PREPARATION METHOD AND USE THEREOF” (priority 2020, published 2023).
Like-named read-outs stand apart in the source and are kept apart here.

Columns and labels:
[1] = test system: C666-1 cells; test: C666-1 cell viability single concentration (50 μM) inhibition rate (Resazurin); assay type: cell-based; details: Homo sapiens, C6661, 72 h
In short: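 Resazurin fluorescence (560/590 nm, 3 h development) gave the proliferation inhibition rate, normalised to DMSO-treated and cell-free blank wells. Compound was tested at a single 50 μmol/L final concentration on C666-1 cells for 72 h at 37° C, with duplicate wells, after 24 h seeding.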

[2] = test system: C666-1 cells; test: C666-1 cell viability, EC50 from 8-point dilution (Resazurin); assay type: cell-based; details: 100-0.78 μmol/L, read-out: EC50 Quantitation
Description: In order to assess the effect of the EBNA1 inhibitor at the cellular level, the cytotoxicity assay was performed. The EBNA1 inhibitor selectively killed EBV-positive cell lines ([…]-1 cells), but had no toxicity to EBV-negative cell lines (HONE1 cells and HK1 cells). In the test, 100 μL different cell lines were inoculated in a transparent 96-well plate, each well containing 5×10^3 […]-1 cells. After the cells were cultured in an incubator with 5% carbon dioxide at 37° C. for 24 hours, 10 μL compound at a concentration range from 1 mmol/L to 7.8 μmol/L was added into each well (8 points, 2-fold dilution, the final concentration was 100-0.78 μmol/L), and treated in the incubator with carbon dioxide at 37° C. for 72 hours. The cell viability was assessed using a redox indicator Resazurin. Specifically, 10 μL Resazurin at a concentration of 600 μmol/L was added into each well, and incubated at 37° C. for 3 hours, and a Tecan microplate reader was used to detect the fluorescence signal at an excitation wavelength of 560 nm and an emission wavelength of 590 nm. A software was used to fit the inhibition curve and calculate the concentration for 50% of maximal effect (EC50). The selectivity of compound activity was assessed by comparing the EC50 of EBV-positive and EBV-negative cell lines.

[3] = 50 μM compound, 72 hours, C666-1 cells, read-out: C666-1 cell viability single concentration (50 μM) inhibition rate, Ratio* (Inh %)
[4] = C666-1 cells, single concentration, read-out: Inhibition Rate (Inh %)
[5] = read-out: C666-1 cell viability single concentration (50 μM) inhibition rate, Ratio* (Inh %)

SMILES	inhibition at 50 µM [1, 3] [%]	inhibition at 50 µM [1, 4] [%]	EC50 ([2]; Homo sapiens, C6661, 72 h) [µM]	inhibition at 50 µM [1, 5] [%]	EC50 ([2]; 72 hours) [µM]
COC(=O)c1cccc(N2CC(OC(=O)Nc3ccc(OC)cc3OC)C2)c1-n1cccc1 [Example 146, Methyl 3-(3-(((2,4-dimethoxyphenyl)carbamoyl)oxy)azetidin-1-yl)-2-(1H-pyrrol-1-yl)benzoate]	10 to 30	10 to 30	> 100		
COC(=O)c1cccc(N2CC(OC(=S)Nc3ccc(Cl)cc3)C2)c1-n1cccc1 [Example 147, Methyl 3-(3-(((4-chlorophenyl)thiocarbamoyl)oxy)azetidin-1-yl)-2-(1H-pyrrol-1-yl)benzoate]	30 to 50	30 to 50	50 to 75		
COC(=O)c1cccc(N2CC(OC(=O)Nc3ccc(Oc4ccccc4)cc3)C2)c1-n1cccc1 [Example 152, Methyl 3-(3-(((4-phenoxyphenyl)carbamoyl)oxy)azetidin-1-yl)-2-(1H-pyrrol-1-yl)benzoate]	< 10	< 10	> 100		
COC(=O)c1cccc(N2CC(OC(=O)Nc3ccc(OC(F)(F)F)cc3)C2)c1-n1cccc1 [Example 153, Methyl 2-(1H-pyrrol-1-yl)-3-(3-(((4-(trifluoromethoxy)phenyl)carbamoyl)oxy)azetidin-1-yl)benzoate]	10 to 30	10 to 30	75 to 100		
COC(=O)c1cccc(N2CC(OC(=O)NCc3ccc(C(F)(F)F)cc3)C2)c1-n1cccc1 [Example 154, Methyl 2-(1H-pyrrol-1-yl)-3-(3-(((4-(trifluoromethyl)benzyl)carbamoyl)oxy)azetidin-1-yl)benzoate]	10 to 30	10 to 30	> 100		
COC(=O)c1cccc(N2CC(=CC(=O)OC(C)(C)C)C2)c1-n1cccc1 [Example 189, Methyl 3-(3-(2-(tert-butoxy)-2-oxovinyl)azetidin-1-yl)-2-(1H-pyrrol-1-yl)benzoate]	10 to 30	10 to 30	75 to 100		
COc1cccc(Oc2ccc(OC3CN(c4cccc(C(=O)O)c4-n4cccc4)C3)cc2)c1 [Example 197, 3-(3-(4-(3-methoxyphenoxy)phenoxy)azetidin-1-yl)-2-(1H-pyrrol-1-yl) benzoic acid]	10 to 30	10 to 30	> 100		
COC(=O)c1cccc(N2CC(Oc3ccc(COC(=O)OC4CCOCC4)cc3)C2)c1-n1cccc1 [Example 234, Methyl 3-(3-(4-(((((tetrahydro-2H-pyran-4-yl)oxy)carbonyl)oxy)methyl)phenoxy)azetidin-1-yl)-2-(1H-pyrrol-1-yl)benzoate]	> 50	> 50	< 50		
COC(=O)c1cccc(N2CC(Oc3ccc(C(=O)Nc4ccccc4)cc3)C2)c1-n1cccc1 [Example 263, Methyl 3-(3-(4-(phenylcarbamoyl)phenoxy)azetidin-1-yl)-2-(1H-pyrrol-1-yl)benzoate]	10 to 30	10 to 30	> 100		
CCNC(=O)c1ccc(OC2CN(c3cccc(C(=O)O)c3-n3cccc3)C2)cc1 [Example 264, 3-(3-(4-(ethylcarbamoyl)phenoxy)azetidin-1-yl)-2-(1H-pyrrol-1-yl)benzoic acid]	< 10	< 10	> 100		
O=C(O)c1cccc(N2CC(Oc3ccc(C(=O)N4CCOCC4)cc3)C2)c1-n1cccc1 [Example 266, 3-(3-(4-(morpholinyl-4-carbonyl)phenoxy)azetidin-1-yl)-2-(1H-pyrrol-1-yl)benzoic acid]	< 10	< 10	> 100		
O=C(O)c1cccc(N2CC(Oc3ccc(Oc4ccc(C(F)(F)F)cc4)cc3)C2)c1-n1cccc1 [Example 292, 3-(3-(4-(4-(trifluoromethyl)phenoxy)phenoxy)azetidin-1-yl)2-(1H-pyrrol-1-yl)benzoic acid]	> 50	> 50	< 50		
O=C(Nc1ccccc1)c1ccc(OC2CN(c3cccc(C(=O)O)c3-n3cccc3)C2)cc1 [Example 302, 3-(3-(4-(phenylcarbamoyl)phenoxy)azetidin-1-yl)-2-(1H-pyrrol-1-yl)benzoic acid]	10 to 30	10 to 30	> 100		
COC(=O)c1cccc(C#CN(Cc2ccccc2)S(C)(=O)=O)c1-n1cccc1 [Example 381, Methyl 3-((N-benzylmethylsulfonamido)ethynyl)-2-(1H-pyrrol-1-yl)benzoate]	30 to 50	30 to 50	> 100		
CS(=O)(=O)N(C#Cc1cccc(C(=O)O)c1-n1cccc1)Cc1ccccc1 [Example 382, Lithium 3-((N-benzylmethylsulfonamido)ethynyl)-2-(1H-pyrrol-1-yl)benzoate]				< 10	
COC(=O)c1cccc(C#CN(C)S(=O)(=O)c2ccc(C)cc2)c1-n1cccc1 [Example 383]	10 to 30		< 50		> 100
Cc1ccc(S(=O)(=O)N(C)C#Cc2cccc(C(=O)O)c2-n2cccc2)cc1 [Example 384]	< 10				
COC(=O)c1cccc(C#CN(Cc2ccc(OC)cc2)S(=O)(=O)c2ccc(C)cc2)c1-n1cccc1 [Example 385]	10 to 30				
COc1ccc(CN(C#Cc2cccc(C(=O)O)c2-n2cccc2)S(=O)(=O)c2ccc(C)cc2)cc1 [Example 386]				< 10	
COC(=O)c1cccc(C#CN(Cc2cccnc2)S(=O)(=O)c2ccc(C)cc2)c1-n1cccc1 [Example 387]	> 50				
O=C(NCc1ccco1)c1cccc(N2CC(Oc3ccc(CO)cc3)C2)c1-n1cccc1 [Example 388, N-(furan-2-yl-methyl)-3-(3-(4-(hydroxymethyl)phenoxy)azetidin 1-yl)-2-(1H-pyrrol-1-yl)benzamide]	< 10				
COC(=O)c1cccc(C#CN(Cc2ccncc2)S(=O)(=O)c2ccc(C)cc2)c1-n1cccc1 [Example 389]	> 50				
Cc1ccc(S(=O)(=O)N(C#Cc2cccc(C(=O)O)c2-n2cccc2)Cc2ccncc2)cc1 [Example 390]				10 to 30	
COC(=O)c1cccc(C2CC2c2ccccc2)c1N (centres unmarked) [Example 391, Methyl 2-amino-3-(2-phenylcyclopropyl)benzoate]	< 10				
Nc1c(C(=O)O)cccc1C1CC1c1ccccc1 (centres unmarked) [Example 392, 2-amino-3-(2-phenylcyclopropyl)benzoic acid]	< 10				
O=C(O)c1cccc(C2CC2c2ccccc2)c1-n1cccc1 (centres unmarked) [Example 393, 3-(2-phenylcyclopropyl)-2-(1H-pyrrol-1-yl)benzoic acid]	< 10				
O=C(O)c1cccc(N2CC(Oc3ccc(COC4CCOCC4)cc3)C2)c1-n1cccc1 [Example 394, 2-(1H-pyrrol-1-yl)-3-(3-(4-(((tetrahydro-2H-pyran-4-yl)oxy)methyl)phenoxy)azetidin-1-yl)benzoic acid]	< 10				
COC(=O)c1cccc(N2CC(Oc3ccc(CO)cc3)C2)c1-c1cc2ccccc2s1 [Example 395, Methyl 2-(benzo[b]thiophen-2-yl)-3-(3-(4-(hydroxymethyl)phenoxy)azetidin-1-yl)benzoate]	10 to 30				
CN(C)CCNC(=O)c1cccc(N2CC(Oc3ccc(CO)cc3)C2)c1-n1cccc1 [Example 396, N-(2-dimethylamino)ethyl-3-(3-(4-(hydroxymethyl)phenoxy)azetidin-1-yl)-2-(1H-pyrrol-1-yl)benzamide]	< 10				
